Among the data in US20240025884A1 (Dong-A ST Co., Ltd., priority 2022, published 2024) are IC50 values, retold here.

A value given as a limit tells only on which side of the number the result lay.

For the experiment, the target named is GCN2 (Homo sapiens (Human), UniProt Q9P2K8). The experiment is described as follows: GCN2 Biochemical Assay (TR-FRET, GFP-eIF2S1 substrate phosphorylation). As to conditions: read-out: IC50 (GCN2 Inhibitory Activity). An outline of the steps: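 TR-FRET readout (Ex 340, Em 490/520 nm) after 2–3 h with Tb-labelled phospho-eIF2S1 antibody in stop mix, following a 70 min room-temperature kinase step. Reaction: in-house GCN2, GFP-eIF2S1, ATP, tRNA in Tris pH 7.5 (2× stocks 1.6 nM, 50 nM, 0.2 mM); compounds tested at 10 concentrations, with a phospho-substrate artifact counter-plate.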
Chain of GCN2 (Q9P2K8 whole entry): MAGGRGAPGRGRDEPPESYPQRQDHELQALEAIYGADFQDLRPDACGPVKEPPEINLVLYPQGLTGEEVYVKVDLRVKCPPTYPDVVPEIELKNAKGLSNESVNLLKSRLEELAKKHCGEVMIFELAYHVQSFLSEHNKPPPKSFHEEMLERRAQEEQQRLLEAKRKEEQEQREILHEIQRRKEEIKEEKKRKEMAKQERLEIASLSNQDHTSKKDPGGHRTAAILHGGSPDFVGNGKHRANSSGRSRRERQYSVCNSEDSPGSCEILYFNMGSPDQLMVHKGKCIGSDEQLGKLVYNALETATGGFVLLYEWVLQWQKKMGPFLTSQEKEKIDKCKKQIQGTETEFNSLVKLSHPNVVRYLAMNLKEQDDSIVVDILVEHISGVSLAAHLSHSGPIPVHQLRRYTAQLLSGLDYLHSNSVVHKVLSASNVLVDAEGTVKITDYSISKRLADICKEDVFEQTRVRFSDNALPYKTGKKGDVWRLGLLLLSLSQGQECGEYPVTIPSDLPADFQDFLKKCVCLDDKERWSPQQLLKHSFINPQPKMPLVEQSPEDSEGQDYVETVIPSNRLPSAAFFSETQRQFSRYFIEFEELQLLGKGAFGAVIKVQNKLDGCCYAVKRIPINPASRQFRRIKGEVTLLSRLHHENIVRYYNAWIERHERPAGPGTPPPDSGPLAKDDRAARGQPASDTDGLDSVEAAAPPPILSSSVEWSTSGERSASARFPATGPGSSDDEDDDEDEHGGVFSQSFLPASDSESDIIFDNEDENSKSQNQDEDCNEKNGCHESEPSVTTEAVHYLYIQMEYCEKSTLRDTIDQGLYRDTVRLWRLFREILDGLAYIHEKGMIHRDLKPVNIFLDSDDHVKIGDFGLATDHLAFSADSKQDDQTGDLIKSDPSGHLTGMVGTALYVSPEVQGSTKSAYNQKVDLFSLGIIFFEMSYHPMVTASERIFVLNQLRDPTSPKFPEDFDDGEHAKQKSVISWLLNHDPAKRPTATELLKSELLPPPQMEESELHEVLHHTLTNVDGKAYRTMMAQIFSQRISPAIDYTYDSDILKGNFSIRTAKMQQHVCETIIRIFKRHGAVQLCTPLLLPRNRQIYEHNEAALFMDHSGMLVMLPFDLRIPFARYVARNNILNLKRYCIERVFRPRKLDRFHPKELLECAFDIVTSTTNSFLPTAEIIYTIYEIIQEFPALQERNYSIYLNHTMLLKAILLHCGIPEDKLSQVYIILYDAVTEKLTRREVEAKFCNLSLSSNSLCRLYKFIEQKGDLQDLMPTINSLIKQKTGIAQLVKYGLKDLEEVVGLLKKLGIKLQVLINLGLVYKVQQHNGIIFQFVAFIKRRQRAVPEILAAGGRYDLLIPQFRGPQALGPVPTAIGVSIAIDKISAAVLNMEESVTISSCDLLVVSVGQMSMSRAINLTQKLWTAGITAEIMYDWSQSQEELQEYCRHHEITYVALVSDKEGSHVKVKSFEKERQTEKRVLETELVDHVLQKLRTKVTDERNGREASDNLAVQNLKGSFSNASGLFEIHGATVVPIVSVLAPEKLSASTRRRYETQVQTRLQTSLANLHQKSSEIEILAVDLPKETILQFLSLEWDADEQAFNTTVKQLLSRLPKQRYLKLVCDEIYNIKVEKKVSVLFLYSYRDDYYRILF
On the technique in general: TR-FRET usually uses a lanthanide donor and a delayed reading to cut background.
Usually IC50 stands for the concentration needed to halve the response being measured. Consider `Cc1cnc(Nc2cc(C)n(C)n2)nc1-c1c[nH]c2c(NC(=O)CN3CC[C@H](CC#N)C3)cccc12` [Example 46, (R)-2-(3-(cyanomethyl)pyrrolidin-1-yl)-N-(3-(2-((1,5-dimethyl-1H-pyrazol-3-yl)amino)-5-methylpyrimidin-4-yl)-1H-indol-7-yl)acetamide], for which the IC50 was 100 to 1000 nM. The value for `Cc1cnc(Nc2cc(C)n(C)n2)nc1-c1c[nH]c2c(NC(=O)CN3CC[C@H](Oc4cc(C(F)(F)F)nc(N)n4)C3)cccc12` [Example 99, (S)-2-(3-((2-amino-6-(trifluoromethyl)pyrimidin-4-yl)oxy)pyrrolidin-1-yl)-N-(3-(2-((1,5-dimethyl-1H-pyrazol-3-yl)amino)-5-methylpyrimidin-4-yl)-1H-indol-7-yl)acetamide] was 10 to 100 nM. With `Cc1cnc(Nc2cc(C)n(C)n2)nc1-c1c[nH]c2c(NC(=O)CN3CC[C@H](Oc4nc(N)nc(N)n4)C3)cccc12` [Example 138, (S)-2-(3-((4,6-diamino-1,3,5-triazin-2-yl)oxy)pyrrolidin-1-yl)-N-(3-(2-((1,5-dimethyl-1H-pyrazol-3-yl)amino)-5-methylpyrimidin-4-yl)-1H-indol-7-yl)acetamide], the IC50 was less than 10 nM. Take `Cc1cnc(Nc2cc(C)n(C)n2)nc1-c1c[nH]c2c(NC(=O)CN3CC=C(c4cnn(C)c4)CC3)cccc12` [Example 35, N-(3-(2-((1,5-dimethyl-1H-pyrazol-3-yl)amino)-5-methylpyrimidin-4-yl)-1H-indol-7-yl)-2-(4-(1-methyl-1H-pyrazol-4-yl)-3,6-dihydropyridin-1(2H)-yl)acetamide]: the IC50 is 100 to 1000 nM.

Take `Cc1cnc(Nc2cc(C)n(C)n2)nc1-c1c[nH]c2c(N3Cc4c(ccnc4-c4ccncc4)C3=O)cccc12` [Example 501, 2-(3-(2-((1,5-dimethyl-1H-pyrazol-3-yl)amino)-5-methylpyrimidin-4-yl)-1H-indol-7-yl)-4-(pyridin-4-yl)-2,3-dihydro-1H-pyrrolo[3,4-c]pyridin-1-one]: the IC50 was less than 10 nM. For the molecule `Cc1cnc(Nc2cc(C)n(C)n2)nc1-c1c[nH]c2c(NC(=O)CN3CC[C@H](Oc4cc(NCCc5ccccc5)ncn4)C3)cccc12` [Example 150, (S)-N-(3-(2-((1,5-dimethyl-1H-pyrazol-3-yl)amino)-5-methylpyrimidin-4-yl)-1H-indol-7-yl)-2-(3-((6-(phenethylamino)pyrimidin-4-yl)oxy)pyrrolidin-1-yl)acetamide], the IC50 lay within 10 to 100 nM.

For `Cc1cnc(Nc2cc(C)n(C)n2)nc1-c1c[nH]c2c(N3Cc4c(/C=C/C(=O)NC(C)(C)C)cccc4C3=O)cccc12` [Example 371, (E)-N-(tert-butyl)-3-(2-(3-(2-((1,5-dimethyl-1H-pyrazol-3-yl)amino)-5-methylpyrimidin-4-yl)-1H-indol-7-yl)-1-oxoisoindolin-4-yl)acrylamide], the 50% inhibitory concentration (IC50) was less than 10 nM.

Turning to `Cc1cnc(Nc2cc(C)n(C)n2)nc1-c1c[nH]c2c(N3Cc4cccc(Nc5ccccc5)c4C3=O)cccc12` [Example 346, 2-(3-(2-((1,5-dimethyl-1H-pyrazol-3-yl)amino)-5-methylpyrimidin-4-yl)-1H-indol-7-yl)-7-(phenylamino)isoindolin-1-one], the IC50 was in the range of 100 to 1000 nM.

Turning to `Cc1cnc(Nc2cc(C)n(C)n2)nc1-c1c[nH]c2c(NC(=O)CN3CC[C@H](Oc4cc(NCCCN(C)C)ncn4)C3)cccc12` [Example 148, (S)-N-(3-(2-((1,5-dimethyl-1H-pyrazol-3-yl)amino)-5-methylpyrimidin-4-yl)-1H-indol-7-yl)-2-(3-((6-((3-(dimethylamino)propyl)amino)pyrimidin-4-yl)oxy)pyrrolidin-1-yl)acetamide], the half-maximal inhibitory concentration (IC50) is less than 10 nM. In the case of `CNc1cc(O[C@H]2CCN(CC(=O)Nc3cccc4c(-c5nc(Nc6cc(C)n(C)n6)ncc5C)c[nH]c34)C2)ncn1` [Example 141, (S)-N-(3-(2-((1,5-dimethyl-1H-pyrazol-3-yl)amino)-5-methylpyrimidin-4-yl)-1H-indol-7-yl)-2-(3-((6-(methylamino)pyrimidin-4-yl)oxy)pyrrolidin-1-yl)acetamide], the IC50 was less than 10 nM.

On to `CSc1nccc(O[C@H]2CCN(CC(=O)Nc3cccc4c(-c5nc(Nc6cc(C)n(C)n6)ncc5C)c[nH]c34)C2)n1` [Example 193, (S)-N-(3-(2-((1,5-dimethyl-1H-pyrazol-3-yl)amino)-5-methylpyrimidin-4-yl)-1H-indol-7-yl)-2-(3-((2-(methylthio)pyrimidin-4-yl)oxy)pyrrolidin-1-yl)acetamide], for which the IC50 is less than 10 nM. Regarding `Cc1cnc(Nc2cc(C)n(C)n2)nc1-c1c[nH]c2c(NC(=O)CN3CC[C@@H](Oc4ccncc4)C3)cccc12` [Example 77, (R)-N-(3-(2-((1,5-dimethyl-1H-pyrazol-3-yl)amino)-5-methylpyrimidin-4-yl)-1H-indol-7-yl)-2-(3-(pyridin-4-yloxy)pyrrolidin-1-yl)acetamide], the IC50 is 10 to 100 nM. Consider `Cc1cnc(Nc2cc(C)n(C)n2)nc1-c1c[nH]c2c(N3Cc4cc(Br)ccc4C3=O)cccc12` [Example 270, 5-bromo-2-(3-(2-((1,5-dimethyl-1H-pyrazol-3-yl)amino)-5-methylpyrimidin-4-yl)-1H-indol-7-yl)isoindolin-1-one], for which the IC50 is less than 10 nM. Turning to `CCOC(=O)c1cnoc1O[C@H]1CCN(CC(=O)Nc2cccc3c(-c4nc(Nc5cc(C)n(C)n5)ncc4C)c[nH]c23)C1` [Example 121, ethyl (S)-5-((1-(2-((3-(2-((1,5-dimethyl-1H-pyrazol-3-yl)amino)-5-methylpyrimidin-4-yl)-1H-indol-7-yl)amino)-2-oxoethyl)pyrrolidin-3-yl)oxy)isoxazole-4-carboxylate], the IC50 is less than 10 nM. As to `Cc1cnc(Nc2cc(C)n(C)n2)nc1-c1c[nH]c2c(NC(=O)CN3CC[C@H](Oc4cc(F)cc(F)c4)C3)cccc12` [Example 86], the half-inhibitory concentration (IC50) lay in the range of 100 to 1000 nM.

As to `CCNc1cncc(O[C@H]2CCN(CC(=O)Nc3cccc4c(-c5nc(Nc6cc(C)n(C)n6)ncc5C)c[nH]c34)C2)n1` [Example 244, (S)-N-(3-(2-((1,5-dimethyl-1H-pyrazol-3-yl)amino)-5-methylpyrimidin-4-yl)-1H-indol-7-yl)-2-(3-((6-(ethylamino)pyrazin-2-yl)oxy)pyrrolidin-1-yl)acetamide], the IC50 lay in the range of 10 to 100 nM.

`Cc1cnc(Nc2cc(C)n(C)n2)nc1-c1c[nH]c2c(N(C)C(=O)CN3CC[C@H](Oc4ccncn4)C3)cccc12` [Example 21, (S)-N-(3-(2-((1,5-dimethyl-1H-pyrazol-3-yl)amino)-5-methylpyrimidin-4-yl)-1H-indol-7-yl)-N-methyl-2-(3-(pyrimidin-4-yloxy)pyrrolidin-1-yl)acetamide]: the IC50 is 10 to 100 nM. In the case of `Cc1cnc(Nc2cc(C)n(C)n2)nc1-c1c[nH]c2c(N3Cc4c(cccc4-c4cc(F)nc(F)c4)C3=O)cccc12` [Example 427, 4-(2,6-difluoropyridin-4-yl)-2-(3-(2-((1,5-dimethyl-1H-pyrazol-3-yl)amino)-5-methylpyrimidin-4-yl)-1H-indol-7-yl)isoindolin-1-one], the IC50 is less than 10 nM. With `Cc1cnc(Nc2cc(C)n(C)n2)nc1-c1c[nH]c2c(N3Cc4c(cccc4-c4ccc(N)nc4)C3=O)cccc12` [Example 420, 4-(6-aminopyridin-3-yl)-2-(3-(2-((1,5-dimethyl-1H-pyrazol-3-yl)amino)-5-methylpyrimidin-4-yl)-1H-indol-7-yl)isoindolin-1-one], the IC50 is less than 10 nM.
